Laboratory results published in article PMC9112895, “Selective Inhibition of Plasmodium falciparum ATPase 6 by Artemisinins and Identification of New Classes of Inhibitors after Expression in Yeast” (Antimicrobial Agents and Chemotherapy, 2022).

How the values were obtained:
PfATP6 [1] = target: T1, PfATP6 (Plasmodium falciparum, UniProt Q08853); experiment: In vitro activity assay, PfATP6 (membrane-bound); format: biochemical; set-up: pUGpd containing the yeast-optimized coding region of PfATP6 from Plasmodium falciparum; expressed in transfected cells; settings: 1 μM free calcium
T1 sequence (Q08853 whole entry): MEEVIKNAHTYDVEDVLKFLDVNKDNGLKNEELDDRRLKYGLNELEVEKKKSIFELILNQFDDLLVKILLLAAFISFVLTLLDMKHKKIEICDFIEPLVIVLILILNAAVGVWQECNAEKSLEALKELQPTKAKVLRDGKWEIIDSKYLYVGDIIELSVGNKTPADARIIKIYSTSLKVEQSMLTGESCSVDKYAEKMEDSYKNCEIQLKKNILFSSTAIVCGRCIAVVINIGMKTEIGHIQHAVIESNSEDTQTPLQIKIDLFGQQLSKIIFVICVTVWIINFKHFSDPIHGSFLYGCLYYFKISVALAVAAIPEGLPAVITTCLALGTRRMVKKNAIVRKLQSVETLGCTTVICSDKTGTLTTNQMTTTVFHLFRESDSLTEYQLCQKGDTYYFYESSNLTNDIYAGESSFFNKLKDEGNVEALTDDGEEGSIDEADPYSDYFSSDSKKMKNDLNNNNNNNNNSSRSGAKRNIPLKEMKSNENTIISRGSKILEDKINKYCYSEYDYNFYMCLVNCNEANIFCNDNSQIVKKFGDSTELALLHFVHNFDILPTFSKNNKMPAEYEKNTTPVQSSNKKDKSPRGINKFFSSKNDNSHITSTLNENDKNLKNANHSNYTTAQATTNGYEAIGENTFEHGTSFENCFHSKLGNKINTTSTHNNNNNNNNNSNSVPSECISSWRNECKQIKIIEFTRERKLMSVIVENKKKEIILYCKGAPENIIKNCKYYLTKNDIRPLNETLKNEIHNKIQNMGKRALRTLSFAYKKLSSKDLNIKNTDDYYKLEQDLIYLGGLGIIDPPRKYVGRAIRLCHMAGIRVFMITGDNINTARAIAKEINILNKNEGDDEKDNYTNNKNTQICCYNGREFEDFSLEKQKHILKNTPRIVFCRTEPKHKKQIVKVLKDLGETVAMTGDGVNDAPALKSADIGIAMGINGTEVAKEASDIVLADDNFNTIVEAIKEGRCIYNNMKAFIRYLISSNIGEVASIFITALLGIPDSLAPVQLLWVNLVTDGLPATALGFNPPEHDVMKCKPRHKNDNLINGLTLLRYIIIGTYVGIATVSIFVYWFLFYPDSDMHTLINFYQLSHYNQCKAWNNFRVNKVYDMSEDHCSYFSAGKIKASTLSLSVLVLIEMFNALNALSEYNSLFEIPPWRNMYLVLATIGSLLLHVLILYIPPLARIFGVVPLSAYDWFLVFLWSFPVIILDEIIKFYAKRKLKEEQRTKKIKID
Method: Activity assays were performed as described by Longland et al. ([55]) and LeBel et al. ([56]), except that the reaction mixtures were incubated at 30°C instead of 37°C. […] Then, 5.8 mM ATP was added and incubated for an additional 15 min at 30°C. The reaction was stopped with 0.5 mL 6.5% trichloroacetic acid (TCA) on ice, and the mixture was centrifuged at 4°C for 10 min at 16,000 × g; 0.5 mL of the supernatant was added to 1.5 mL of copper acetate buffer (0.25% copper sulfate pentahydrate, 4.6% sodium acetate trihydrate, dissolved in 2 M acetic acid [pH 4.0]) and mixed by vortex-mixing before the addition of 0.25 mL of 5% ammonium molybdate, followed by 0.25 mL METOL buffer (2% p-methyl-aminophenol sulfate, 5% sodium sulfite). Samples were incubated for 10 min, and the absorbance was measured at 870 nm in a spectrophotometer. The Pi standard was 0.4387 g/100 mL KH2PO4.

PfATP6 [2] = target: T1, PfATP6; experiment: cell-based; format: cell-based; set-up: pUGpd containing the yeast-optimized coding region of PfATP6 from Plasmodium falciparum; expressed in transfected cells; host or cells: Saccharomyces cerevisiae K667 and K667Δpdr5::HIS
Method: The screening assay used here was developed from the protocol used by Pulcini et al. ([13]). A single colony of the yeast strain to be screened was picked and grown in 5 mL of selective medium until stationary phase was reached. The culture was diluted 100-fold in ampicillin-supplemented yeast extract-peptone-dextrose (YPD) medium to an OD at 620 nm (OD620) equivalent to that of lag phase. YPD medium was supplemented with an appropriate concentration of calcium, depending on the transformed strain. […] The optimal calcium concentration was periodically monitored and, if necessary, adjusted using a calcium concentration range of 10 to 30 mM. A final volume of 200 μL of the yeast culture was added to each well of a 96-well plate, with 5 technical replicates included per inhibitor. All inhibitors were dissolved in dimethyl sulfoxide (DMSO) unless otherwise stated. […] The 96-well plates were incubated at 30°C for 42 h. The yeast growth was estimated from the absorbance at 620 nm in a Tecan plate reader. Growth was normalized with the no-drug control to present data as percent growth. The data collected were analyzed using GraphPad Prism v9.0 (GraphPad software, San Diego, CA, U.S.A).

CC(=O)C1=C(O)[C@@H]2[C@H]3c4c[nH]c5cccc(c45)C[C@H]3C(C)(C)N2C1=O [CPA, cyclopiazonic acid]
in vitro activity of PfATP6 versus no drug control (PfATP6 [1]): No significant | approximate IC10 (PfATP6 [2]; fitness cost assays, drug pressure): ~5 µM | IC80 (PfATP6 [2]; read-out: approximate yeast IC80): ~5 µM
